Measured values: patent US10111900B2, “β-glucan methods and compositions that affect the tumor microenvironment” (Biothera, Inc., priority 2014, dated 2018)

How the values were obtained:
[1] = tested on: M2 macrophages cultured in TCM; assay: Flow cytometry of markers on M2 macrophages cultured in tumor-conditioned medium (TCM); assay type: cell-based, human
Description: Phenotypic and functional evaluation of β-glucan-treated M2a and β-glucan-treated M2 macrophages in the presence of immunosuppressive cytokines was carried out. M2 or M2a macrophages were prepared as described above. On day 3, tumor-conditioned medium (TCM) was added M2 macrophage cultures to account for 70% of the volume of the culture and then evaluated for CD163 expression and functional activity on day 6. […] M2a macrophages were cultured in IL-4 as described above.
The β-glucan-treated M2a macrophages cultured in IL-4 and M2 macrophages cultured in TCM were first evaluated for CD163 and CD86 expression. CD163 and CD86 were evaluated by flow cytometry and median MFI was calculated for isotype control staining and surface antigen staining and the results are shown in Table 5.
Monocytes or M2 macrophages were prepared as described above. On day 3, TCM was added to account for 70% of the volume of the culture and then evaluated for PD-L1 expression with TCM and then again when co-cultured with CD4 T cells.

CD4 T cells = assay: MCM-CD4 T cell proliferation and surface marker study; assay type: cell-based, human
Description: For MCM-CD4 T cell proliferation study, CD3 & CD28-stimulated, CFSE-labeled CD4 T cells were cultured with 50% MCM. T cell proliferation was measured on day 11 as described above. Culture supernatants of the MCM-CD4 T cell co-culture were collected for subsequent cytokine analysis. MCM-CD4 T cell surface marker evaluation was performed as described above.
To determine whether soluble factors secreted from β-glucan-treated M2 macrophages are required, measurements were carried out of CD4 T cell proliferation co-cultured with β-glucan-treated M2 macrophages MCM (50% of volume) and surface activation marker modulation on T cells incubated with the MCM were observed. FIG. 9 is representative of 2 different experiments. […] In addition, the CD4 T cells cultured in vehicle- and β-glucan-treated M2 macrophage MCM were evaluated for modulation of co-stimulatory or co-inhibitory molecules (CD80, CD28, CTLA-4, 4-1BB and PD-1).
To test this, M2 macrophages were prepared as described above with a few modifications. The whole blood of a low binder was spun down to remove the plasma and then the cells were reconstituted with serum obtained from a high binder. The reconstituted blood was treated with vehicle or β-glucan (25 μg/mL) for 2 hours at 37° C. The monocytes were evaluated for binding by using anti-β-glucan specific monoclonal antibody and subsequent flow cytometry.

Substance: β(1,6)-[poly-(1,3)-D-glucopyranosyl]-poly-β(1,3)-D-glucopyranose [β-glucan]
- surface expression of PD-L1 ([1]; M2 macrophages cultured in the TCM): higher surface expression
- HLA-DR expression ([1]; M2 macrophages in TCM (data not shown)): higher HLA-DR expression
- expression of PD-L1 ([1]; M2 macrophages in TCM co-cultured with CD4 T cells): increased expression
- CD163 expression ([1]; β-glucan-treated monocytes cultured in TCM): marked down-regulation
- T cell markers (CD80, CD28, CTLA-4, 4-1BB and PD-1) (CD4 T cells; CD4 T cells cultured in M2 macrophage MCM (data not shown)): no change
- CD4 T cell proliferation (CD4 T cells; MCM of M2 macrophages of a low binder crossed-over with high binder's serum, vs vehicle): significantly higher ability to enhance
- CD4 T cell proliferation (CD4 T cells; β-glucan-treated M2 macrophage MCM (50% of volume) vs vehicle MCM): significantly higher ability to enhance
